ChEMBL document CHEMBL3044586, “Design, synthesis, and anticonvulsant screening of some substituted piperazine and aniline derivatives of 5-phenyl-oxazolidin-2,4-diones and 5,5-diphenylimidazolidin-2,4 diones” (Med Chem Res, 2012)
Activity calls are given as the source filed them. The calls are words filed in the database; no cut-off is given here.

Key:
Rattus norvegicus [1] = experiment: Presynaptic antagonist activity at 5HT1A receptor in Rattus norvegicus Wistar (rat) assessed as change in rectal temperature at 0.1 mg/kg, sc measured after 90 min (reference value: -0.2 +/- 0.1 degC); assay type: functional, organism-based; set-up: dose 0.1 mg/kg
Rattus norvegicus [2] = experiment: Presynaptic antagonist activity at 5HT1A receptor in Rattus norvegicus Wistar (rat) assessed as change in rectal temperature at 0.1 mg/kg, sc measured after 60 min (reference value: 0.0 +/- 0.1 degC); assay type: functional, organism-based; set-up: dose 0.1 mg/kg
Rattus norvegicus [3] = experiment: Postsynaptic antagonist activity at 5HT1A receptor in Rattus norvegicus Wistar (rat) assessed as inhibition of 8-OH-DPAT-induced lower lip retraction at 0.1 mg/kg, sc administered 45 min prior to 8-OH-DPAT-challenge measured after 15 min; assay type: functional, organism-based; set-up: dose 0.1 mg/kg
Rattus norvegicus [4] = experiment: Antagonist activity at 5HT1A receptor in Rattus norvegicus Wistar (rat) assessed as change in rectal temperature at 0.1 mg/kg, sc measured after 30 min (reference value: -0.1 +/- 0.1 degC); assay type: functional, organism-based; set-up: dose 0.1 mg/kg
Rattus norvegicus [5] = experiment: Presynaptic antagonist activity at 5HT1A receptor in Rattus norvegicus Wistar (rat) assessed as change in rectal temperature at 0.1 mg/kg, sc measured after 120 min (reference value: 0.0 +/- 0.1 degC); assay type: functional, organism-based; set-up: dose 0.1 mg/kg
Mus musculus [6] = experiment: Anticonvulsant activity in Mus musculus Swiss albino (mouse) assessed as reduction in maximal electroshock-induced seizure at 300 mg/kg, ip measured after 0.5 hr; assay type: functional, organism-based; set-up: dose 300 mg/kg
Rattus norvegicus [7] = experiment: Presynaptic agonist activity at 5HT1A receptor in Rattus norvegicus Wistar (rat) assessed as change in rectal temperature at 20 mg/kg, ip measured after 30 min (reference value: -0.1 +/- 0.1 degC); assay type: functional, organism-based; set-up: dose 20 mg/kg
Rattus norvegicus [8] = experiment: Presynaptic agonist activity at 5HT1A receptor in Rattus norvegicus Wistar (rat) assessed as change in rectal temperature at 10 mg/kg, ip measured after 30 min (reference value: -0.1 +/- 0.1 degC); assay type: functional, organism-based; set-up: dose 10 mg/kg
Rattus norvegicus [9] = experiment: Anticonvulsant activity in Rattus norvegicus Wistar (rat) assessed as reduction in maximal electroshock-induced seizures at 30 mg/kg, po measured after 0.5 hr; assay type: functional, organism-based; set-up: dose 30 mg/kg
Rattus norvegicus [10] = experiment: Presynaptic agonist activity at 5HT1A receptor in Rattus norvegicus Wistar (rat) assessed as change in rectal temperature at 10 mg/kg, ip measured after 90 min (reference value: -0.2 +/- 0.1 degC); assay type: functional, organism-based; set-up: dose 10 mg/kg
Mus musculus [11] = experiment: Anticonvulsant activity in Mus musculus Swiss albino (mouse) assessed as reduction in maximal electroshock-induced seizure at 100 mg/kg, ip measured after 0.5 hr; assay type: functional, organism-based; set-up: dose 100 mg/kg
Rattus norvegicus [12] = experiment: Anticonvulsant activity in Rattus norvegicus Wistar (rat) assessed as reduction in maximal electroshock-induced seizures at 30 mg/kg, po measured after 4 hr; assay type: functional, organism-based; set-up: dose 30 mg/kg
Mus musculus [13] = experiment: Binding affinity to 5HT2A receptor in ip dosed Mus musculus Swiss albino (mouse) assessed as effect on +/-DOI-induced head twitching administered 60 min prior to +/-DOI-challenge measured for 20 min; assay type: functional, organism-based
Rattus norvegicus [14] = experiment: Neurotoxicity against Rattus norvegicus Wistar (rat) assessed as inability to maintain equilibrium on rod at 30 mg/kg, po measured after 4 hr by rotarod test; assay type: toxicity, organism-based; set-up: dose 30 mg/kg, route oral; settings: in vivo
Rattus norvegicus [15] = experiment: Presynaptic agonist activity at 5HT1A receptor in Rattus norvegicus Wistar (rat) assessed as change in rectal temperature at 10 mg/kg, ip measured after 60 min (reference value: 0.0 +/- 0.1 degC); assay type: functional, organism-based; set-up: dose 10 mg/kg
Mus musculus [16] = experiment: Neurotoxicity against Mus musculus Swiss albino (mouse) assessed as inability to maintain equilibrium on rod at 30 to 300 mg/kg, ip measured after 4 hr by rotarod test; assay type: toxicity, organism-based; set-up: dose 30-300 mg/kg, route intraperitoneal; settings: in vivo
Mus musculus [17] = experiment: Anticonvulsant activity in Mus musculus Swiss albino (mouse) assessed as reduction in maximal electroshock-induced seizure at 100 mg/kg, ip measured after 4 hr; assay type: functional, organism-based; set-up: dose 100 mg/kg
Rattus norvegicus [18] = experiment: Presynaptic agonist activity at 5HT1A receptor in Rattus norvegicus Wistar (rat) assessed as change in rectal temperature at 20 mg/kg, ip measured after 120 min (reference value: 0.0 +/- 0.1 degC); assay type: functional, organism-based; set-up: dose 20 mg/kg
Mus musculus [19] = experiment: Neurotoxicity against Mus musculus Swiss albino (mouse) assessed as inability to maintain equilibrium on rod at 30 to 300 mg/kg, ip measured after 0.5 hr by rotarod test; assay type: toxicity, organism-based; set-up: dose 30-300 mg/kg, route intraperitoneal; settings: in vivo
Rattus norvegicus [20] = experiment: Neurotoxicity against Rattus norvegicus Wistar (rat) assessed as inability to maintain equilibrium on rod at 30 mg/kg, po measured after 0.5 hr by rotarod test; assay type: toxicity, organism-based; set-up: dose 30 mg/kg, route oral; settings: in vivo
Rattus norvegicus [21] = experiment: Presynaptic agonist activity at 5HT1A receptor in Rattus norvegicus Wistar (rat) assessed as change in rectal temperature at 10 mg/kg, ip measured after 120 min (reference value: 0.0 +/- 0.1 degC); assay type: functional, organism-based; set-up: dose 10 mg/kg
Rattus norvegicus [22] = experiment: Postsynaptic agonist activity at 5HT1A receptor in Rattus norvegicus Wistar (rat) assessed as increase in lower lip retraction at 10 to 20 mg/kg, ip measured after 15 min; assay type: functional, organism-based
Rattus norvegicus [23] = experiment: Presynaptic agonist activity at 5HT1A receptor in Rattus norvegicus Wistar (rat) assessed as change in rectal temperature at 20 mg/kg, ip measured after 60 min (reference value: 0.0 +/- 0.1 degC); assay type: functional, organism-based; set-up: dose 20 mg/kg
Rattus norvegicus [24] = experiment: Presynaptic agonist activity at 5HT1A receptor in Rattus norvegicus Wistar (rat) assessed as change in rectal temperature at 20 mg/kg, ip measured after 90 min (reference value: -0.2 +/- 0.1 degC); assay type: functional, organism-based; set-up: dose 20 mg/kg
Mus musculus [25] = experiment: Anticonvulsant activity in Mus musculus Swiss albino (mouse) assessed as reduction in maximal electroshock-induced seizure at 30 mg/kg, ip measured after 0.5 hr; assay type: functional, organism-based; set-up: dose 30 mg/kg
Mus musculus [26] = experiment: Neurotoxicity against Mus musculus Swiss albino (mouse) assessed as inability to maintain equilibrium on rod at 100 mg/kg, ip measured after 0.5 hr by rotarod test; assay type: toxicity, organism-based; set-up: dose 100 mg/kg, route intraperitoneal; settings: in vivo
Mus musculus [27] = experiment: Neurotoxicity against Mus musculus Swiss albino (mouse) assessed as inability to maintain equilibrium on rod at 100 mg/kg, ip measured after 4 hr by rotarod test; assay type: toxicity, organism-based; set-up: dose 100 mg/kg, route intraperitoneal; settings: in vivo
Mus musculus [28] = experiment: Anticonvulsant activity in Mus musculus Swiss albino (mouse) assessed as reduction in maximal electroshock-induced seizure at 30 mg/kg, ip measured after 4 hr; assay type: functional, organism-based; set-up: dose 30 mg/kg

Q: `COc1ccccc1N1CCN(CCN(C(=O)C2CCCCC2)c2ccccn2)CC1` was tested. Which deltaT (Rattus norvegicus [1]) did it give?
A: Its deltaT is 0.1 °C.

Q: And the deltaT (Rattus norvegicus [2])?
A: Its deltaT is 0.2 °C.

Q: What about the inhibition (Rattus norvegicus [3]) of the same compound?
A: The inhibition was “Active”.

Q: And the deltaT (Rattus norvegicus [4])?
A: The deltaT was 0.2 °C.

Q: What about the deltaT (Rattus norvegicus [5]) of the same compound?
A: Its deltaT is 0.2 °C.

Q: How did the Activity (Mus musculus [6]) turn out when `COc1ccc(NCCN2C(=O)NC(c3ccccc3)(c3ccccc3)C2=O)cc1` was run?
A: The Activity was “Active”.

Q: And the deltaT (Rattus norvegicus [7])?
A: Its deltaT is -1.2 °C.

Q: And the deltaT (Rattus norvegicus [8])?
A: Its deltaT is -0.5 °C.

Q: What about the Activity (Rattus norvegicus [9]) of the same compound?
A: Its Activity is “inactive”.

Q: And the deltaT (Rattus norvegicus [10])?
A: The deltaT was -0.8 °C.

Q: And the Activity (Mus musculus [11])?
A: Its Activity is “Active”.

Q: And the Activity (Rattus norvegicus [12])?
A: The Activity was “inactive”.

Q: What about the Activity (Mus musculus [13]) of the same compound?
A: The Activity was “inactive”.

Q: What about the Activity (Rattus norvegicus [14]) of the same compound?
A: The Activity was “Non-toxic”.

Q: And the deltaT (Rattus norvegicus [15])?
A: The deltaT was -0.6 °C.

Q: And the Activity (Mus musculus [16])?
A: The Activity was “Non-toxic”.

Q: What about the Activity (Mus musculus [17]) of the same compound?
A: Its Activity is “Active”.

Q: And the deltaT (Rattus norvegicus [18])?
A: The deltaT was -1.3 °C.

Q: And the Activity (Mus musculus [19])?
A: Its Activity is “Non-toxic”.

Q: And the Activity (Rattus norvegicus [20])?
A: Its Activity is “Non-toxic”.

Q: What about the deltaT (Rattus norvegicus [21]) of the same compound?
A: Its deltaT is -0.6 °C.

Q: And the Activity (Rattus norvegicus [22])?
A: The Activity was “Active”.

Q: And the deltaT (Rattus norvegicus [23])?
A: Its deltaT is -1.5 °C.

Q: What about the deltaT (Rattus norvegicus [24]) of the same compound?
A: The deltaT was -1.8 °C.

Q: With `O=C1NC(=O)C(c2ccccc2)(c2ccccc2)N1` [PHENYTOIN] as the compound, how does the Activity (Mus musculus [25]) read?
A: Its Activity is “Active”.

Q: And the Activity (Rattus norvegicus [9])?
A: The Activity was “Active”.

Q: What about the Activity (Rattus norvegicus [12]) of the same compound?
A: The Activity was “Active”.

Q: And the Activity (Rattus norvegicus [14])?
A: The Activity was “Non-toxic”.

Q: And the Activity (Mus musculus [26])?
A: Its Activity is “Toxic”.

Q: What about the Activity (Mus musculus [27]) of the same compound?
A: Its Activity is “Toxic”.

Q: And the Activity (Rattus norvegicus [20])?
A: Its Activity is “Non-toxic”.

Q: What about the Activity (Mus musculus [28]) of the same compound?
A: Its Activity is “Active”.
